How the values were obtained:
Assay in all cases: KINOMEscan competition binding
Settings in all cases: compound 10.0 µM
DYRK1B (human) = DYRK1B (human) (UniProt Q9Y463)
MKNK2 (human) = MKNK2 (human) (UniProt Q9HBH9)
PTK2B (human) = PTK2B (human) (UniProt Q14289)
MAP2K4 (human) = MAP2K4 (human) (UniProt P45985)
SRPK2 (human) = SRPK2 (human) (UniProt P78362)
PAK2 (human) = PAK2 (human) (UniProt Q13177)
PAK1 (human) = PAK1 (human) (UniProt Q13153)
PHKG1 (human) = PHKG1 (human) (UniProt Q16816)
CSNK1G1 (human) = CSNK1G1 (human) (UniProt Q9HCP0)
EPHA2 (human) = EPHA2 (human) (UniProt P29317)
CDK8 (human) = CDK8 (human) (UniProt P49336)
DCLK2 (human) = DCLK2 (human) (UniProt Q8N568)
PRKCI (human) = PRKCI (human) (UniProt P41743)
PLK2 (human) = PLK2 (human) (UniProt Q9NYY3)
RPS6KA2 KD2 (human) = RPS6KA2 KD2 (human) (UniProt Q15349)
ADCK4 (human) = ADCK4 (human) (UniProt Q96D53)
CAMK2D (human) = CAMK2D (human) (UniProt Q13557)
FER (human) = FER (human) (UniProt P16591)
[1] = tested on: RET (human), P07949 [V804L]
GSK3B (human) = GSK3B (human) (UniProt P49841)
ZAP70 (human) = ZAP70 (human) (UniProt P43403)
RIOK1 (human) = RIOK1 (human) (UniProt Q9BRS2)
CDC42BPG (human) = CDC42BPG (human) (UniProt Q6DT37)
INSRR (human) = INSRR (human) (UniProt P14616)
MKNK1 (human) = MKNK1 (human) (UniProt Q9BUB5)
MAPK15 (human) = MAPK15 (human) (UniProt Q8TD08)
MELK (human) = MELK (human) (UniProt Q14680)
Chain of MELK (human) (Q14680 whole entry, looked up): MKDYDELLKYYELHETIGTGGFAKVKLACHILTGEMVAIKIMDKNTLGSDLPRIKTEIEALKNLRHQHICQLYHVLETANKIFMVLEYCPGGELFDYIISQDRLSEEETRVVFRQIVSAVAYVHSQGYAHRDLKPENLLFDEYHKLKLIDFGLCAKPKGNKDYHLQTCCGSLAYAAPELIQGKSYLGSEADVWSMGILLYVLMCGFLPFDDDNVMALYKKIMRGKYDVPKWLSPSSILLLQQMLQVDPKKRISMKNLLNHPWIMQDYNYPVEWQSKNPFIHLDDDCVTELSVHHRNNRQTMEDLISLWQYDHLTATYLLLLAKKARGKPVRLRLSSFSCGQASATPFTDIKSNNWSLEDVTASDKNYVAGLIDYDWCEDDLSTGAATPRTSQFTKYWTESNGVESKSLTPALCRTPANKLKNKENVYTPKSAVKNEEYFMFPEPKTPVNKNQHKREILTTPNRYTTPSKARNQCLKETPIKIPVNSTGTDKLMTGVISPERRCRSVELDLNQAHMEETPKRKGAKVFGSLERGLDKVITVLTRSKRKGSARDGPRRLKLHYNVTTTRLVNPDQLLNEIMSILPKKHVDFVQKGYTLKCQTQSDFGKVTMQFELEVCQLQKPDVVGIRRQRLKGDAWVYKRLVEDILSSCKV

SGK110 (human) = SGK110 (human) (UniProt P0C264)
Chain of SGK110 (human) (P0C264 whole entry, looked up): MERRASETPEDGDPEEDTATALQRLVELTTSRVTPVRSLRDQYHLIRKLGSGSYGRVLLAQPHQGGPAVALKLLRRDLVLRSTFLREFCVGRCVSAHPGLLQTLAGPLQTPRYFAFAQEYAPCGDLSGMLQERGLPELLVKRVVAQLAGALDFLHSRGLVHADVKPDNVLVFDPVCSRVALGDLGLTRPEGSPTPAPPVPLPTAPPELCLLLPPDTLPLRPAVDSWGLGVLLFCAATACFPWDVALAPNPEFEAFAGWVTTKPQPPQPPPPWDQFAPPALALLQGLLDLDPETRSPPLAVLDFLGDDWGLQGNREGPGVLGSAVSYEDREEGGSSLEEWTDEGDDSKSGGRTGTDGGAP

LTK (human) = LTK (human) (UniProt P29376)
PLK1 (human) = PLK1 (human) (UniProt P53350)
MUSK (human) = MUSK (human) (UniProt O15146)
MAP3K13 (human) = MAP3K13 (human) (UniProt O43283)
Chain of MAP3K13 (human) (O43283 whole entry, looked up): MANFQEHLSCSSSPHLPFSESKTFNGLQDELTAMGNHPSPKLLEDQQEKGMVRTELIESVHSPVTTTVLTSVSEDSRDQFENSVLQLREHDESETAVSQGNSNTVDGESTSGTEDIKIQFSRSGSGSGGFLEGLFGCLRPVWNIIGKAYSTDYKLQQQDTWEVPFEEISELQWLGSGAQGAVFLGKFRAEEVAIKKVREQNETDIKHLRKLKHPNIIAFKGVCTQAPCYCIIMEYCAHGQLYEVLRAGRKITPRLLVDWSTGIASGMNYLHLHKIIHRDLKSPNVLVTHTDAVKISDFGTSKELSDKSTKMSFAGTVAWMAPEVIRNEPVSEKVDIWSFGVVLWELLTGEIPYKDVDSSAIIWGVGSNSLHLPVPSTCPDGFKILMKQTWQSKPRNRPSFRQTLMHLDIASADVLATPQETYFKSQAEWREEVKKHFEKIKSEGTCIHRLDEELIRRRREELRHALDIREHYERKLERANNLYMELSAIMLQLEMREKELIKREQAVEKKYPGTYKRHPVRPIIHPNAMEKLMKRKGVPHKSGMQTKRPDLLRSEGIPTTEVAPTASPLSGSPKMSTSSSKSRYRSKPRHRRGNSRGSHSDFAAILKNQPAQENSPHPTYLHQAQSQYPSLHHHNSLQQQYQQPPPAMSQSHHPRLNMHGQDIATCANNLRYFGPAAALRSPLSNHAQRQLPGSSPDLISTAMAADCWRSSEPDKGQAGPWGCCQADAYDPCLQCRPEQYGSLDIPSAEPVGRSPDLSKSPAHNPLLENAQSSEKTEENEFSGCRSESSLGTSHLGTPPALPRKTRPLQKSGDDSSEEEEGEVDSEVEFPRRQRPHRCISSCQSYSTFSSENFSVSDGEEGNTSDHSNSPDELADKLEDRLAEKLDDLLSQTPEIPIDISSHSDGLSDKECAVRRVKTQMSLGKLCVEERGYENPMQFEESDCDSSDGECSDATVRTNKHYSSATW

MAP4K3 (human) = MAP4K3 (human) (UniProt Q8IVH8)
Chain of MAP4K3 (human) (Q8IVH8 whole entry, looked up): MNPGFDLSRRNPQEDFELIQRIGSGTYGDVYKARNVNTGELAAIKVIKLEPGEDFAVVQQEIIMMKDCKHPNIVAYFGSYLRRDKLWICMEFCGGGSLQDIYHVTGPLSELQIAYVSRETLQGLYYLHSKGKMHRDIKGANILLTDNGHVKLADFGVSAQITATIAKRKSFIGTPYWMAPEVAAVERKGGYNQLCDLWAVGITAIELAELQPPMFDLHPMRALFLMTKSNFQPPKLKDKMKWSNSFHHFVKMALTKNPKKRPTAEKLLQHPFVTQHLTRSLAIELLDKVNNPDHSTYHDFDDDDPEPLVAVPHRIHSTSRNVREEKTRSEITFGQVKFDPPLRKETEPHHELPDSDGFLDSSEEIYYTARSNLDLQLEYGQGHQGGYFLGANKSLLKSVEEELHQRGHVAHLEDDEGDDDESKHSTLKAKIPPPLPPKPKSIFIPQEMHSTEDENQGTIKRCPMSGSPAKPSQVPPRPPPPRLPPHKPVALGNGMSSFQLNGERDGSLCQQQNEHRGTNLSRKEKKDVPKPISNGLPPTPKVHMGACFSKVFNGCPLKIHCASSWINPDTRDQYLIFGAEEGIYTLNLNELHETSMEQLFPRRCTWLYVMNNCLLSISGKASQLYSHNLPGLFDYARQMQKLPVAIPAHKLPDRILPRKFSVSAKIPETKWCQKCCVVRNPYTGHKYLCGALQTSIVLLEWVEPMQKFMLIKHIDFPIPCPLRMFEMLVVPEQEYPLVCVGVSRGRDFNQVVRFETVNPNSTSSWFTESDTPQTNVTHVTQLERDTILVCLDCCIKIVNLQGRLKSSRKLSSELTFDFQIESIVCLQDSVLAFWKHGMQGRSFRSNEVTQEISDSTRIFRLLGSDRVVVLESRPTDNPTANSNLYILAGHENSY

HCK (human) = HCK (human) (UniProt P08631)
EPHA1 (human) = EPHA1 (human) (UniProt P21709)
STK32A (human) = STK32A (human) (UniProt Q8WU08)
CDK7 (human) = CDK7 (human) (UniProt P50613)
ALK (human) = ALK (human) (UniProt Q9UM73)
YSK4 (human) = YSK4 (human) (UniProt Q56UN5)
ANKK1 (human) = ANKK1 (human) (UniProt Q8NFD2)

Chain of DYRK1B (human) (Q9Y463 whole entry, looked up): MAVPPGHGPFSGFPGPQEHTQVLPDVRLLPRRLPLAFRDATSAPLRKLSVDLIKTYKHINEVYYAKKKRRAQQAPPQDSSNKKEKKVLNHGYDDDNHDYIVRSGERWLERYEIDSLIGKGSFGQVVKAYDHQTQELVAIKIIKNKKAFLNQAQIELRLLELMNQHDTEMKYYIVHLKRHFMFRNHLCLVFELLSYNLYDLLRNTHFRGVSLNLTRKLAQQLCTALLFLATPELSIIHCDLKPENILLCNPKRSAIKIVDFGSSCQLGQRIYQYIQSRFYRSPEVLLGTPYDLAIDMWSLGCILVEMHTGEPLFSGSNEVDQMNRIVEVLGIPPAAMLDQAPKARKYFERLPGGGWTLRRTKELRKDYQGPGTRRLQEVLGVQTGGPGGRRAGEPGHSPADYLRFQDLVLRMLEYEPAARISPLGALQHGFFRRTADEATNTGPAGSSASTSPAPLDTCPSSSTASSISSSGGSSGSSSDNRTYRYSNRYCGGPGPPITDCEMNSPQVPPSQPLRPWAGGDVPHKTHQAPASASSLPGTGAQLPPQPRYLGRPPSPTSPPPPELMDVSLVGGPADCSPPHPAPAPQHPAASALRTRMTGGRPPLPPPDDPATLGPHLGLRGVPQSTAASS
Chain of PAK2 (human) (Q13177 whole entry, looked up): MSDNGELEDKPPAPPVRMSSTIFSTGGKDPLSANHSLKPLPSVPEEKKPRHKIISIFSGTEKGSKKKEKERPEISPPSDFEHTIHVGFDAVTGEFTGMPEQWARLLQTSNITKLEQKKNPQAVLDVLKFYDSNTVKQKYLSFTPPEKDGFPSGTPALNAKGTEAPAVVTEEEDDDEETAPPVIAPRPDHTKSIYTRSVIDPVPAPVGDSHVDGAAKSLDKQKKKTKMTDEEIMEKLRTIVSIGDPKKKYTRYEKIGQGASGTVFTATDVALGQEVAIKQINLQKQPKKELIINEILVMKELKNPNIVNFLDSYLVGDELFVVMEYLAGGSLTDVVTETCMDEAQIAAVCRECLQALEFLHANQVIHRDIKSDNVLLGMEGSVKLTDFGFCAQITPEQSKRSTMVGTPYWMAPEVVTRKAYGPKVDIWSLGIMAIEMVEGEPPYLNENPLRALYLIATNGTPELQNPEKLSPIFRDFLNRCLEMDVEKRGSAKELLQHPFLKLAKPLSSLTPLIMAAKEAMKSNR
Chain of PAK1 (human) (Q13153 whole entry, looked up): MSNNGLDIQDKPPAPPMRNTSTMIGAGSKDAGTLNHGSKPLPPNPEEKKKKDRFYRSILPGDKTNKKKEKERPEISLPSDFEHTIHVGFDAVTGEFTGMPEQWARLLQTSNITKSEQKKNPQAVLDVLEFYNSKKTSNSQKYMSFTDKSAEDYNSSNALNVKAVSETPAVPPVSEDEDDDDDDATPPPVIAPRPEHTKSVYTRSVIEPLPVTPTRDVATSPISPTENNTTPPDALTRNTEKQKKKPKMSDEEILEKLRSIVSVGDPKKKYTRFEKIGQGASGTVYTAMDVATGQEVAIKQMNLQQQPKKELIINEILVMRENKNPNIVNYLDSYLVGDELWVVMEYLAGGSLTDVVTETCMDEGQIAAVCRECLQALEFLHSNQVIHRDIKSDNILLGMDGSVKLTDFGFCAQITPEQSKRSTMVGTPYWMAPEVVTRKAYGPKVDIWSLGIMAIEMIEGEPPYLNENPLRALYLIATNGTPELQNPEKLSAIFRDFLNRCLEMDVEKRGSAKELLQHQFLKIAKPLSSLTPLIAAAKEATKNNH
Chain of MKNK2 (human) (Q9HBH9 whole entry, looked up): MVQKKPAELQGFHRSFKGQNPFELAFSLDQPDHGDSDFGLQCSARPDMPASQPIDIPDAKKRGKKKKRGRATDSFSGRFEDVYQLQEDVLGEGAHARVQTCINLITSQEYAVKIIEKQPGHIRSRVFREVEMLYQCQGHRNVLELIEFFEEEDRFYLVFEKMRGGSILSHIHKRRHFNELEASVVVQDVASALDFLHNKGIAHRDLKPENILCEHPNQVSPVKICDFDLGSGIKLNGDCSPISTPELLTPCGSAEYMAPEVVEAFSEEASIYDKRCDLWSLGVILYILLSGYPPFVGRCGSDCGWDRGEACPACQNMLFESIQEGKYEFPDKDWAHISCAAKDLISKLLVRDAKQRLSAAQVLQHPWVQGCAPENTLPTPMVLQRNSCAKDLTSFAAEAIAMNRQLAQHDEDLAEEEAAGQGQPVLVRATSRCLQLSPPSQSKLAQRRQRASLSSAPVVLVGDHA

## COc1cc2ncnc(Nc3cccc(Cl)c3)c2cc1OC
DYRK1B (human)
  kinase still bound, per cent of control: 70%
MKNK2 (human)
  kinase still bound, per cent of control: 3.9%
PTK2B (human)
  kinase still bound, per cent of control: 86%
MAP2K4 (human)
  kinase still bound, per cent of control: 85%
SRPK2 (human)
  kinase still bound, per cent of control: 62%
PAK2 (human)
  kinase still bound, per cent of control: 53%
PAK1 (human)
  kinase still bound, per cent of control: 85%
PHKG1 (human)
  kinase still bound, per cent of control: 67%
CSNK1G1 (human)
  kinase still bound, per cent of control: 100%
EPHA2 (human)
  kinase still bound, per cent of control: 62%
CDK8 (human)
  kinase still bound, per cent of control: 100%
DCLK2 (human)
  kinase still bound, per cent of control: 88%
PRKCI (human)
  kinase still bound, per cent of control: 80%
PLK2 (human)
  kinase still bound, per cent of control: 44%
RPS6KA2 KD2 (human)
  kinase still bound, per cent of control: 90%
ADCK4 (human)
  kinase still bound, per cent of control: 28%
CAMK2D (human)
  kinase still bound, per cent of control: 61%
FER (human)
  kinase still bound, per cent of control: 82%
[1]
  kinase still bound, per cent of control: 100%
GSK3B (human)
  kinase still bound, per cent of control: 90%
ZAP70 (human)
  kinase still bound, per cent of control: 78%
RIOK1 (human)
  kinase still bound, per cent of control: 65%
CDC42BPG (human)
  kinase still bound, per cent of control: 56%
INSRR (human)
  kinase still bound, per cent of control: 100%
MKNK1 (human)
  kinase still bound, per cent of control: 4.6%
MAPK15 (human)
  kinase still bound, per cent of control: 100%
MELK (human)
  kinase still bound, per cent of control: 74%
SGK110 (human)
  kinase still bound, per cent of control: 65%
LTK (human)
  kinase still bound, per cent of control: 48%
PLK1 (human)
  kinase still bound, per cent of control: 92%
MUSK (human)
  kinase still bound, per cent of control: 100%
MAP3K13 (human)
  kinase still bound, per cent of control: 100%
MAP4K3 (human)
  kinase still bound, per cent of control: 100%
HCK (human)
  kinase still bound, per cent of control: 6.8%
EPHA1 (human)
  kinase still bound, per cent of control: 43%
STK32A (human)
  kinase still bound, per cent of control: 63%
CDK7 (human)
  kinase still bound, per cent of control: 26%
ALK (human)
  kinase still bound, per cent of control: 25%
YSK4 (human)
  kinase still bound, per cent of control: 3.2%
ANKK1 (human)
  kinase still bound, per cent of control: 63%

## CNC(=O)Nc1ccc(-c2nc(N3CC4CCC(C3)O4)c3cnn(C4CCC5(CC4)OCCO5)c3n2)cc1
DYRK1B (human)
  kinase still bound, per cent of control: 100%
MKNK2 (human)
  kinase still bound, per cent of control: 87%
PTK2B (human)
  kinase still bound, per cent of control: 100%
MAP2K4 (human)
  kinase still bound, per cent of control: 90%
SRPK2 (human)
  kinase still bound, per cent of control: 90%
PAK2 (human)
  kinase still bound, per cent of control: 99%
PAK1 (human)
  kinase still bound, per cent of control: 100%
PHKG1 (human)
  kinase still bound, per cent of control: 100%
CSNK1G1 (human)
  kinase still bound, per cent of control: 54%
EPHA2 (human)
  kinase still bound, per cent of control: 81%
CDK8 (human)
  kinase still bound, per cent of control: 100%
DCLK2 (human)
  kinase still bound, per cent of control: 97%
PRKCI (human)
  kinase still bound, per cent of control: 67%
PLK2 (human)
  kinase still bound, per cent of control: 100%
RPS6KA2 KD2 (human)
  kinase still bound, per cent of control: 93%
ADCK4 (human)
  kinase still bound, per cent of control: 100%
CAMK2D (human)
  kinase still bound, per cent of control: 100%
FER (human)
  kinase still bound, per cent of control: 100%
[1]
  kinase still bound, per cent of control: 85%
GSK3B (human)
  kinase still bound, per cent of control: 69%
ZAP70 (human)
  kinase still bound, per cent of control: 83%
RIOK1 (human)
  kinase still bound, per cent of control: 91%
CDC42BPG (human)
  kinase still bound, per cent of control: 84%
INSRR (human)
  kinase still bound, per cent of control: 100%
MKNK1 (human)
  kinase still bound, per cent of control: 100%
MAPK15 (human)
  kinase still bound, per cent of control: 25%
MELK (human)
  kinase still bound, per cent of control: 92%
SGK110 (human)
  kinase still bound, per cent of control: 96%
LTK (human)
  kinase still bound, per cent of control: 68%
PLK1 (human)
  kinase still bound, per cent of control: 77%
MUSK (human)
  kinase still bound, per cent of control: 92%
MAP3K13 (human)
  kinase still bound, per cent of control: 82%
MAP4K3 (human)
  kinase still bound, per cent of control: 94%
HCK (human)
  kinase still bound, per cent of control: 100%
EPHA1 (human)
  kinase still bound, per cent of control: 81%
STK32A (human)
  kinase still bound, per cent of control: 99%
CDK7 (human)
  kinase still bound, per cent of control: 88%
ALK (human)
  kinase still bound, per cent of control: 42%
YSK4 (human)
  kinase still bound, per cent of control: 100%
ANKK1 (human)
  kinase still bound, per cent of control: 77%

## CCCS(=O)(=O)Nc1ccc(F)c(C(=O)c2c[nH]c3ncc(Cl)cc23)c1F
DYRK1B (human)
  kinase still bound, per cent of control: 87%
MKNK2 (human)
  kinase still bound, per cent of control: 84%
PTK2B (human)
  kinase still bound, per cent of control: 83%
MAP2K4 (human)
  kinase still bound, per cent of control: 6.6%
SRPK2 (human)
  kinase still bound, per cent of control: 100%
PAK2 (human)
  kinase still bound, per cent of control: 37%
PAK1 (human)
  kinase still bound, per cent of control: 11%
PHKG1 (human)
  kinase still bound, per cent of control: 100%
CSNK1G1 (human)
  kinase still bound, per cent of control: 66%
EPHA2 (human)
  kinase still bound, per cent of control: 100%
CDK8 (human)
  kinase still bound, per cent of control: 2.2%
DCLK2 (human)
  kinase still bound, per cent of control: 61%
PRKCI (human)
  kinase still bound, per cent of control: 100%
PLK2 (human)
  kinase still bound, per cent of control: 83%
RPS6KA2 KD2 (human)
  kinase still bound, per cent of control: 94%
ADCK4 (human)
  kinase still bound, per cent of control: 100%
CAMK2D (human)
  kinase still bound, per cent of control: 99%
FER (human)
  kinase still bound, per cent of control: 58%
[1]
  kinase still bound, per cent of control: 96%
GSK3B (human)
  kinase still bound, per cent of control: 100%
ZAP70 (human)
  kinase still bound, per cent of control: 85%
RIOK1 (human)
  kinase still bound, per cent of control: 100%
CDC42BPG (human)
  kinase still bound, per cent of control: 74%
INSRR (human)
  kinase still bound, per cent of control: 89%
MKNK1 (human)
  kinase still bound, per cent of control: 100%
MAPK15 (human)
  kinase still bound, per cent of control: 97%
MELK (human)
  kinase still bound, per cent of control: 76%
SGK110 (human)
  kinase still bound, per cent of control: 100%
LTK (human)
  kinase still bound, per cent of control: 34%
PLK1 (human)
  kinase still bound, per cent of control: 100%
MUSK (human)
  kinase still bound, per cent of control: 71%
MAP3K13 (human)
  kinase still bound, per cent of control: 100%
MAP4K3 (human)
  kinase still bound, per cent of control: 91%
HCK (human)
  kinase still bound, per cent of control: 19%
EPHA1 (human)
  kinase still bound, per cent of control: 100%
STK32A (human)
  kinase still bound, per cent of control: 85%
CDK7 (human)
  kinase still bound, per cent of control: 69%
ALK (human)
  kinase still bound, per cent of control: 14%
YSK4 (human)
  kinase still bound, per cent of control: 29%
ANKK1 (human)
  kinase still bound, per cent of control: 98%

Source: the kinase profiling compilation of Christmann-Franck et al. (2016)
